Common to all, as to assay: Greenhouse herbicidal activity assay, post-emergence
What all share (type): in vivo

The subject of test [1] is Cyperus iria. The conditions noted are these: Post-emergence test, rate 150 g a.i./hm^2, grade by fresh weight inhibition rate; for pest or weed control at 150 g/ha: Cyperus iria, read-out: Control efficacy grade, Cyperus iria. The source says: (§1) Post-emergence: Seeds of gramineous weeds (Echinochloa crusgalli, Echinochloa crusgalli var. zelayensis, Echinochloa phyllopogon, Eleusine indica, Digitaria sanguinalis, Leptochloa chinensis, Setaria viridis, Alopecurus japonicus Steud, Beckmannia syzigachne, Polypogon fugax, Alopecurus aequalis, Lolium multiflorum, Poa annua, Aegilops tataschii, Avena fatua, Alopecurus myosuroides, Bromus japonicus), broadleaf weeds (Eclipta prostrata, Amaranthus retroflexus, Rorippa indica, Myosoton aquaticum, Veronica didyma, Galium aparine, Solanum nigrum, Xanthium sibiricum, Conyza canadensis, Sesbania cannabina, Sagittaria trifolia), and Cyperus iria (Cyperus iria, Scirpus juncoides, Cyperus difformis, etc.) were sown in plastic pots (7 cm diameter) with nutrient soil and bottom holes. Crop seeds (including Oryza sativa subsp. indica, Oryza sativa subsp. japonica, Oryza sativa L. var. Glutinosa matsum, Triticum aestivum, Zea mays, Sorghum bicolor, Setaria italica, Glycine max, Gossypium hirsutum, Brassica napus, Arachis hypogaea) were sown in plastic pots (10 cm diameter) with nutrient soil and bottom holes. After sowing, the pots were placed in the growth chamber until the plants reached the 3-6 leaf stage for foliar spraying. Post-treatment, the materials were air-dried naturally and returned to the growth chamber. Results were assessed 14-21 days later.
(§2) • A: Fresh weight inhibition rate≥80% to 100%; • B: Fresh weight inhibition rate[…] to <80%; • C: Fresh weight inhibition rate≥40% to <60%; • D: Fresh weight inhibition rate≥20% to <40%; • E: Fresh weight inhibition rate<20%; • NT: Not tested.

For test [2], the system named is Leptochloa chinensis. The conditions noted are these: Post-emergence test, rate 150 g a.i./hm^2, grade by fresh weight inhibition rate; for pest or weed control at 150 g/ha: Dinebra chinensis, read-out: Control efficacy grade, Leptochloa chinensis.
Text: as §1, §2

Test [3] relates to Echinochloa crusgalli. The conditions noted are these: Post-emergence test, rate 150 g a.i./hm^2, grade by fresh weight inhibition rate; for pest or weed control at 150 g/ha: Echinochloa crus-galli, read-out: Control efficacy grade, Echinochloa crusgalli.
Text: as §1, §2

Test [4] relates to Eclipta prostrata. Conditions: Post-emergence test, rate 150 g a.i./hm^2, grade by fresh weight inhibition rate.
Text: as §1, §2

In the case of `CCC[S+]([O-])c1c(S(C)(=O)=O)ccc(C(=O)N(C)c2nnnn2C)c1Cl` (racemic) [Compound 1-98], in test [1], the “Control efficacy grade, Cyperus iria” value is given as “A (Fresh weight inhibition rate≥80% to 100%)”. The “Control efficacy grade, Leptochloa chinensis” value in test [2] is “A (Fresh weight inhibition rate≥80% to 100%)”. Further, the “Control efficacy grade, Echinochloa crusgalli” value in test [3] is reported as “A (Fresh weight inhibition rate≥80% to 100%)”.
Consider `CCc1nnc(NC(=O)c2ccc(S(C)(=O)=O)c(SC(C)CC)c2Cl)o1` (racemic) [Compound 3-398], for which the “Control efficacy grade, Cyperus iria” value in test [1] was “A (Fresh weight inhibition rate≥80% to 100%)”. In test [2], the “Control efficacy grade, Leptochloa chinensis” value is “A (Fresh weight inhibition rate≥80% to 100%)”. Besides, the “Control efficacy grade, Echinochloa crusgalli” value in test [3] is given as “B (Fresh weight inhibition rate≥260% to <80%)”.
Regarding `Cn1nnnc1NC(=O)c1ccc(S(C)(=O)=O)c([S+]([O-])C2CCCC2)c1Cl` (racemic) [Compound 1-43], the “Control efficacy grade, Cyperus iria” value in test [1] is “A (Fresh weight inhibition rate≥80% to 100%)”. Further, in test [4], the “Control efficacy grade, Eclipta prostrata” value is reported as “A (Fresh weight inhibition rate≥80% to 100%)”. In addition, the “Control efficacy grade, Leptochloa chinensis” value in test [2] is on record as “A (Fresh weight inhibition rate≥80% to 100%)”. For the same molecule, the “Control efficacy grade, Echinochloa crusgalli” value in test [3] is listed as “A (Fresh weight inhibition rate≥80% to 100%)”.
As for `CCC(C)Sc1c(S(C)(=O)=O)ccc(C(=O)Nc2nnnn2C)c1Cl` (racemic) [Compound 1-16], the “Control efficacy grade, Cyperus iria” value in test [1] is “B (Fresh weight inhibition rate≥260% to <80%)”. For the same molecule, the “Control efficacy grade, Eclipta prostrata” value in test [4] is “A (Fresh weight inhibition rate≥80% to 100%)”. In addition, the “Control efficacy grade, Leptochloa chinensis” value in test [2] is given as “A (Fresh weight inhibition rate≥80% to 100%)”. Further, the “Control efficacy grade, Echinochloa crusgalli” value in test [3] was “A (Fresh weight inhibition rate≥80% to 100%)”.
`Cn1nnnc1NC(=O)c1ccc(S(C)(=O)=O)c(SC2CCCC2)c1Cl` [Compound 1-42]: in test [1], the “Control efficacy grade, Cyperus iria” value was “A (Fresh weight inhibition rate≥80% to 100%)”. Besides, the “Control efficacy grade, Eclipta prostrata” value in test [4] is recorded as “A (Fresh weight inhibition rate≥80% to 100%)”. Moreover, the “Control efficacy grade, Leptochloa chinensis” value in test [2] was “A (Fresh weight inhibition rate≥80% to 100%)”. In addition, the “Control efficacy grade, Echinochloa crusgalli” value in test [3] is given as “B (Fresh weight inhibition rate≥260% to <80%)”.
In the case of `Cc1nnc(N(C)C(=O)c2ccc(S(C)(=O)=O)c([S+]([O-])CC(F)(F)F)c2Cl)o1` (racemic) [Compound 3-832], the “Control efficacy grade, Echinochloa crusgalli” value in test [3] is listed as “A (Fresh weight inhibition rate≥80% to 100%)”.
For `CCC[S+]([O-])c1c(S(C)(=O)=O)ccc(C(=O)N(C)c2ncnn2C)c1Cl` (racemic) [Compound 2-78], in test [3], the “Control efficacy grade, Echinochloa crusgalli” value is recorded as “A (Fresh weight inhibition rate≥80% to 100%)”.
In the case of `Cc1nnc(N(C)C(=O)c2ccc(S(C)(=O)=O)c([S+]([O-])C3CC3)c2Cl)o1` (racemic) [Compound 3-812], the “Control efficacy grade, Eclipta prostrata” value in test [4] is given as “A (Fresh weight inhibition rate≥80% to 100%)”. Further, in test [2], the “Control efficacy grade, Leptochloa chinensis” value is given as “B (Fresh weight inhibition rate≥260% to <80%)”. In test [3], the “Control efficacy grade, Echinochloa crusgalli” value is “B (Fresh weight inhibition rate≥260% to <80%)”.
Consider `CCC(C)[S+]([O-])c1c(S(C)(=O)=O)ccc(C(=O)N(C)c2nnc(C)o2)c1Cl` (mixture of isomers) [Compound 3-820], for which the “Control efficacy grade, Echinochloa crusgalli” value in test [3] was “A (Fresh weight inhibition rate≥80% to 100%)”.
On the same count and under the same terms, next, `CCCC[S+]([O-])c1c(S(C)(=O)=O)ccc(C(=O)N(C)c2nnc(C)o2)c1Cl` (racemic) [Compound 3-815]: “B (Fresh weight inhibition rate≥260% to <80%)”.
Regarding `CC(C)c1nnc(NC(=O)c2ccc(S(C)(=O)=O)c([S+]([O-])C3CCCCC3)c2Cl)o1` (racemic) [Compound 3-551], the “Control efficacy grade, Cyperus iria” value in test [1] is “A (Fresh weight inhibition rate≥80% to 100%)”. For the same molecule, the “Control efficacy grade, Eclipta prostrata” value in test [4] is “A (Fresh weight inhibition rate≥80% to 100%)”. In addition, the “Control efficacy grade, Leptochloa chinensis” value in test [2] is given as “A (Fresh weight inhibition rate≥80% to 100%)”. For the same molecule, the “Control efficacy grade, Echinochloa crusgalli” value in test [3] is given as “B (Fresh weight inhibition rate≥260% to <80%)”.
In the case of `CC(C)c1nnc(N(C)C(=O)c2ccc(S(C)(=O)=O)c([S+]([O-])C(C)C)c2Cl)o1` (racemic) [Compound 3-808], in test [3], the “Control efficacy grade, Echinochloa crusgalli” value is listed as “B (Fresh weight inhibition rate≥260% to <80%)”.
Turning to `Cn1nnnc1NC(=O)c1ccc(S(C)(=O)=O)c(SC2CCCCC2)c1Cl` [Compound 1-47], the “Control efficacy grade, Cyperus iria” value in test [1] is given as “A (Fresh weight inhibition rate≥80% to 100%)”. Besides, the “Control efficacy grade, Eclipta prostrata” value in test [4] is “A (Fresh weight inhibition rate≥80% to 100%)”. Moreover, the “Control efficacy grade, Leptochloa chinensis” value in test [2] is “A (Fresh weight inhibition rate≥80% to 100%)”. In addition, the “Control efficacy grade, Echinochloa crusgalli” value in test [3] is “B (Fresh weight inhibition rate≥260% to <80%)”.
On to `CCc1nnc(NC(=O)c2ccc(S(C)(=O)=O)c(SC(C)C)c2Cl)o1` [Compound 3-388, 2-chloro-N-(5-ethyl-1,3,4-oxadiazol-2-yl)-3-(isopropylthio)-4-(methylsulfonyl)benzamide], for which the pest or weed control at 150 g/ha in test [1], in test [2] and in test [3] was 80 to 100% in each case.
For the molecule `CC(C)Sc1c(S(C)(=O)=O)ccc(C(=O)Nc2nnc(C3CC3)o2)c1Cl` [Compound 3-620, 2-chloro-N-(5-cyclopropyl-1,3,4-oxadiazol-2-yl)-3-(isopropylthio)-4-(methylsulfonyl)benzamide], the pest or weed control at 150 g/ha fell in the range of 80 to 260% in test [1]; 80 to 260% in test [4] (Eclipta prostrata, read-out: Control efficacy grade, Eclipta prostrata); 80 to 100% in test [2]; 80 to 100% in test [3].
In the case of `Cc1nnc(N(C)C(=O)c2ccc(S(C)(=O)=O)c([S+]([O-])CC(C)C)c2Cl)o1` (racemic) [Compound 3-829], in test [2], the “Control efficacy grade, Leptochloa chinensis” value was “B (Fresh weight inhibition rate≥260% to <80%)”. Further, the “Control efficacy grade, Echinochloa crusgalli” value in test [3] was “A (Fresh weight inhibition rate≥80% to 100%)”.
In the case of `Cn1nnnc1NC(=O)c1ccc(S(C)(=O)=O)c(SC2CCC2)c1Cl` [Compound 1-37], in test [1], the “Control efficacy grade, Cyperus iria” value was “A (Fresh weight inhibition rate≥80% to 100%)”. In test [4], the “Control efficacy grade, Eclipta prostrata” value is reported as “A (Fresh weight inhibition rate≥80% to 100%)”. In addition, the “Control efficacy grade, Echinochloa crusgalli” value in test [3] is “A (Fresh weight inhibition rate≥80% to 100%)”.
Turning to `CC(C)c1nnc(NC(=O)c2ccc(S(C)(=O)=O)c([S+]([O-])C3CCCC3)c2Cl)o1` (racemic) [Compound 3-546], in test [1], the “Control efficacy grade, Cyperus iria” value was “A (Fresh weight inhibition rate≥80% to 100%)”. Besides, the “Control efficacy grade, Eclipta prostrata” value in test [4] is reported as “A (Fresh weight inhibition rate≥80% to 100%)”. Further, the “Control efficacy grade, Leptochloa chinensis” value in test [2] is listed as “A (Fresh weight inhibition rate≥80% to 100%)”. For the same molecule, in test [3], the “Control efficacy grade, Echinochloa crusgalli” value is “B (Fresh weight inhibition rate≥260% to <80%)”.
Consider `CC(C)[S+]([O-])c1c(S(C)(=O)=O)ccc(C(=O)N(C)c2nnc(C3CC3)o2)c1Cl` (racemic) [Compound 3-809], for which the “Control efficacy grade, Echinochloa crusgalli” value in test [3] was “B (Fresh weight inhibition rate≥260% to <80%)”.
As for `Cn1ncnc1NC(=O)c1ccc(S(C)(=O)=O)c(S(=O)(=O)CC2CC2)c1Cl` [Compound 2-31], the “Control efficacy grade, Cyperus iria” value in test [1] was “A (Fresh weight inhibition rate≥80% to 100%)”. Also, in test [4], the “Control efficacy grade, Eclipta prostrata” value is given as “A (Fresh weight inhibition rate≥80% to 100%)”. Moreover, the “Control efficacy grade, Leptochloa chinensis” value in test [2] is reported as “A (Fresh weight inhibition rate≥80% to 100%)”. Moreover, in test [3], the “Control efficacy grade, Echinochloa crusgalli” value was “A (Fresh weight inhibition rate≥80% to 100%)”.
As for `CS(=O)(=O)c1ccc(C(=O)Nc2nnco2)c(Cl)c1S(=O)(=O)CCC#N` [Compound 3-377], the “Control efficacy grade, Cyperus iria” value in test [1] is “A (Fresh weight inhibition rate≥80% to 100%)”. In test [4], the “Control efficacy grade, Eclipta prostrata” value is “A (Fresh weight inhibition rate≥80% to 100%)”. Moreover, the “Control efficacy grade, Leptochloa chinensis” value in test [2] was “A (Fresh weight inhibition rate≥80% to 100%)”. Moreover, in test [3], the “Control efficacy grade, Echinochloa crusgalli” value is “C (Fresh weight inhibition rate≥40% to <60%)”.
Take `CCCSc1c(S(C)(=O)=O)ccc(C(=O)N(C)c2nnc(C)o2)c1Cl` [Compound 3-786, 2-chloro-N-methyl-N-(5-methyl-1,3,4-oxadiazol-2-yl)-4-(methylsulfonyl)-3-(propylthio)benzamide]: in test [3], the pest or weed control at 150 g/ha lay in the range of 80 to 260%.
On to `CC(C)c1nnc(NC(=O)c2ccc(S(C)(=O)=O)c(SC3CC3)c2Cl)o1` [Compound 3-535], for which the “Control efficacy grade, Cyperus iria” value in test [1] is on record as “A (Fresh weight inhibition rate≥80% to 100%)”. Also, the “Control efficacy grade, Leptochloa chinensis” value in test [2] is “B (Fresh weight inhibition rate≥260% to <80%)”. Also, the “Control efficacy grade, Echinochloa crusgalli” value in test [3] is on record as “B (Fresh weight inhibition rate≥260% to <80%)”.
